What was measured:
[1] = Oral administration of oxycodone prodrugs co-dosed with trypsin inhibitor Compound 109 to rats; type: in vivo, rat
[2] = Oral administration of hydrocodone prodrugs KC-40 or KC-50 co-dosed with Compound 109 to rats; conditions: for Cmax: HC Cmax ± sd
[3] = Spacer leaving group cyclization release rate in pH 7.4 phosphate buffer
[4] = Pharmacokinetics of hydrocodone prodrugs following PO administration to dogs, with or without Compound 109
[5] = Pharmacokinetics following PO administration of increasing doses of Compound KC-31 to rats; conditions: male, Sprague Dawley, rat, plasma, 10 mg/kg
[6] = Pharmacokinetics following PO administration of Compound KC-55 to rats; conditions: oxycodone in rat plasma, oxycodone 10 mg/kg (28 μmol/kg)
[7] = Oral administration of Compound KC-55 co-dosed with Compound 109 to rats; conditions: male, Sprague Dawley, rat, plasma, 36 umol/kg

SMILES: N=C(N)c1ccc2cc(OC(=O)c3ccc(N=C(N)N)cc3)ccc2c1 [Compound 109, 6-carbamimidoylnaphthalen-2-yl 4-(diaminomethyleneamino)benzoate]
- effect of co-dosed trypsin inhibitor on release of oxycodone by prodrugs KC-12 and KC-17 [1]: ability to attenuate release of oxycodone
- effect of co-dosed trypsin inhibitor on release of hydrocodone by prodrugs KC-40 and KC-50 ([2]; rats, PO): ability to attenuate release of hydrocodone

SMILES: COc1ccc2c3c1O[C@H]1C(OC(=O)N4CCCC[C@@H]4CN)=CC[C@@]4(O)[C@@H](C2)N(C)CC[C@]314 [Compound KC-18, N-(oxycodone-6-enol-carbonyl)-R-(piperidine-2-methylamine)]
- half-life at 2.18 mM [3]: 0.875 ± 0.016 h

SMILES: COc1ccc2c3c1O[C@H]1C(=O)CC[C@H]4[C@@H](C2)N(C)CC[C@]314 [Hydrocodone, hydrocodone]
- HC Cmax ± sd ([4]; Table 12: dog, […] values adjusted to expected value for a 2 μmol/kg dose (4 dose equivalents)): 56.0 n/a^ ng/mL
- HC Cmax ± sd ([4]; Table 12: dog, […] values adjusted to expected value for a 5 μmol/kg dose (10 dose equiv)): 140 n/a^ ng/mL
- HC Cmax ± sd ([4]; Table 13: dog plasma, PO, hydrocodone […] (0.5 μmol/kg)): 14.0 ± 4.3^ ng/mL
- HC Cmax ± sd ([4]; Table 13: dog, […] values adjusted to expected value for a 5 μmol/kg dose (10 dose equiv)): 140 n/a^ ng/mL
- Tmax ([2]; Sprague Dawley, rat, plasma, po, […]): 1.06 h
- Cmax ([2]; Sprague Dawley, rat, plasma, po, […], Table 11A: hydrocodone values in Table 10 adjusted to provide expected values at a […] (62 μmol/kg) dose, rat): 11.9 ng/mL
- Cmax ([2]; Sprague Dawley, rat, plasma, po, […], Table 11B: hydrocodone values in Table 10 adjusted to provide expected values at a 62 μmol/kg ([…]) dose, rat): 12.4 ng/mL
- Tmax ± sd ([2]; Table 11B: hydrocodone values in Table 10 adjusted to provide expected values at a 62 μmol/kg ([…]) dose, rat): 1.06 h
- Cmax [5]: 5.49 ± 1.7 ng/mL
- Tmax [5]: 1.06 ± 0.72 h

SMILES: COc1ccc2c3c1O[C@H]1C(=O)CC[C@@]4(O)[C@@H](C2)N(C)CC[C@]314 [Oxycodone, oxycodone]
- OC Cmax ± sd [6]: 14.7 ± 6.5^ ng/mL
- Cmax [7]: 18.8 ng/mL
